According to US20050209278A1, “Piperidinyl- and piperazinyl-sulfonylmethyl hydroxamic acids and their use as protease inhibitors” (priority 2002, published 2005):
Several values for one entry are separate records, joined by “and”; a condition that tells them apart may be missing. Equal entries are not always repeated.

Assays:
[1] = molecular target: T1, MMP-2 (Homo sapiens, UniProt P08253); test: In vitro MMP inhibition, Ki determination (fluorogenic substrate II); assay type: biochemical; settings: value outside parentheses; read-out: MMP-2 Ki
T1 construct: made in house; host or cells: MMP-2-transfected p2AHT2 cells
T1 sequence (P08253 110-660): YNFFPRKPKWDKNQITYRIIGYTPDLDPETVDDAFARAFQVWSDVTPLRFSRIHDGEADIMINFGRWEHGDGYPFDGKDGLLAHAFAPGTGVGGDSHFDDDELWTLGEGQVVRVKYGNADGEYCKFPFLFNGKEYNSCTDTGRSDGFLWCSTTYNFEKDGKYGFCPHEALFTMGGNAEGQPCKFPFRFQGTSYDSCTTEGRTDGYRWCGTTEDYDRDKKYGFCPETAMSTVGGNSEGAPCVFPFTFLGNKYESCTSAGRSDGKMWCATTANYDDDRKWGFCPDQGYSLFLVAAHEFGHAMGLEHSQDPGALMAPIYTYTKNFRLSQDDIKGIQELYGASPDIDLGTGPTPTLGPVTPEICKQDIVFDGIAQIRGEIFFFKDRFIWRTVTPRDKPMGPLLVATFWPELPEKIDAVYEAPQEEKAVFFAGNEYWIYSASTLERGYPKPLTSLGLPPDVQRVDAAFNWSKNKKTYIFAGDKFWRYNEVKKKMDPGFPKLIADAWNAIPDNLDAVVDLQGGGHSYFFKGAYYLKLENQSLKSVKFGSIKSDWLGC

[2] = molecular target: T2, MMP-13 (Homo sapiens, UniProt P45452); test: as above; assay type: biochemical; settings: value outside parentheses; read-out: MMP-13 Ki
T2 construct: made in house; host or cells: baculovirus / insect cells
In short: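 Ki determined with human recombinant MMP-13, baculovirus-expressed as proenzyme and activated with APMA. Fluorogenic MCA/Dpa substrate II at 4 μM (at or below Km) with low enzyme in Tris buffer pH 7.5 with CaCl2. Incubation was 1 h at room temperature, with fluorescence read at 330/420 nm.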

CCc1ccc(C2CCN(S(=O)(=O)C3(C(=O)NO)CCN(CCOC)CC3)CC2)s1 [Example 314]
Ki [1]: 9.1 nM
Ki [2]: 19.6 nM

O=C(NO)C1(S(=O)(=O)N2CCC(N3CCN(c4ccc(Cl)cc4)CC3)CC2)CCOCC1 [Example 315]
Ki [1]: 1820 nM
Ki [2]: 420 nM

O=C(NO)C1(S(=O)(=O)N2CCN(c3ccc(-c4ccc(F)cc4F)cn3)CC2)CCOCC1 [Example 316]
Ki [1]: 0.73 nM
Ki [2]: 0.77 nM

O=C(NO)C1(S(=O)(=O)N2CCN(c3ccc(-c4ccccc4F)cn3)CC2)CCOCC1 [Example 317]
Ki [1]: 0.55 nM
Ki [2]: 0.71 nM

COc1ccccc1-c1ccc(N2CCN(S(=O)(=O)C3(C(=O)NO)CCOCC3)CC2)nc1 [Example 318]
Ki [1]: 79 nM
Ki [2]: 62.3 nM

O=C(NO)C1(S(=O)(=O)N2CCN(c3ccc(-c4cccc(OC(F)(F)F)c4)cn3)CC2)CCOCC1 [Example 319]
Ki [1]: 33.1 nM
Ki [2]: 4.62 nM

O=C(NO)C1(S(=O)(=O)N2CCN(c3ccc(CCCC(F)(F)F)cc3)CC2)CCOCC1 [Example 320]
Ki [1]: 0.842 nM
Ki [2]: 0.501 nM

O=C(NO)C1(S(=O)(=O)N2CCN(c3cnn(CCCC(F)(F)F)c(=O)c3)CC2)CCOCC1 [Example 321]
Ki [1]: > 10000 nM
Ki [2]: > 10000 nM

O=C(NO)C1(S(=O)(=O)N2CCN(c3cnn(-c4ccccc4)c(=O)c3)CC2)CCOCC1 [Example 322]
Ki [1]: 7870 nM
Ki [2]: > 10000 nM

CCCCc1ccc(C2CCN(S(=O)(=O)C3(C(=O)NO)CCOCC3)CC2)nc1 [Example 323]
Ki [1]: 0.5 nM
Ki [2]: 0.65 nM

COC(=O)c1ccc(N2CCN(S(=O)(=O)C3(C(=O)NO)CCOCC3)CC2)cc1 [Example 324]
Ki [1]: 1.22 nM
Ki [2]: 3.55 nM

CCCCOc1ccc(N2CCN(S(=O)(=O)C3(C(=O)NO)CCN(CCOC)CC3)CC2)nc1 [Example 325]
Ki [1]: 0.18 nM
Ki [2]: 0.09 nM

O=C(NO)C1(S(=O)(=O)N2CCN(c3ccc(OCC(F)(F)C(F)F)cc3)CC2)CCOCC1 [Example 326]
Ki [1]: 0.34 nM
Ki [2]: 0.31 nM

O=C(NO)C1(S(=O)(=O)N2CCN(c3ccc(-c4ccc(OC(F)(F)F)cc4)cc3)CC2)CCOCC1 [Example 327]
Ki [1]: 0.97 nM
Ki [2]: 0.499 nM

O=C(NO)C1(S(=O)(=O)N2CCN(c3ccc(-c4ccc(Cl)c(Cl)c4)cc3)CC2)CCOCC1 [Example 328]
Ki [1]: 3.58 nM
Ki [2]: 0.71 nM

O=C(NO)C1(S(=O)(=O)N2CCN(c3cnn(-c4ccccc4)c(=O)c3Cl)CC2)CCOCC1 [Example 329]
Ki [1]: > 10000 nM
Ki [2]: > 10000 nM

O=C(NO)C1(S(=O)(=O)N2CCC(c3ccc(OCC(F)(F)C(F)(F)F)cc3)CC2)CCOCC1 [Example 330]
Ki [1]: 1.18 nM
Ki [2]: 0.92 nM

O=C(NO)C1(S(=O)(=O)N2CCN(c3ccc(Br)cn3)CC2)CCOCC1 [Example 331]
Ki [1]: 0.103 nM
Ki [2]: 0.193 nM

COCCN1CCC(C(=O)NO)(S(=O)(=O)N2CCN(c3ncccn3)CC2)CC1 [Example 332]
Ki [1]: 190 nM
Ki [2]: 28.2 nM

O=C(NO)C1(S(=O)(=O)N2CCN(c3ccc(OCC4CC4)c(F)c3)CC2)CCOCC1 [Example 333]
Ki [1]: 0.58 nM
Ki [2]: 1.12 nM

CCCCc1cnc(N2CCN(S(=O)(=O)C3(C(=O)NO)CCN(CCOC)CC3)CC2)nc1 [Example 334]
Ki [1]: 5.99 nM
Ki [2]: 2.75 nM

O=C(NO)C1(S(=O)(=O)N2CCN(c3ccc(CCC(F)(F)C(F)(F)F)cc3)CC2)CCN(C2CC2)CC1 [Example 335]
Ki [1]: 0.618 nM
Ki [2]: 0.489 nM

O=C(NO)C1(S(=O)(=O)N2CCN(c3ccc(OCC(F)(F)C(F)F)cc3)CC2)CCOCC1 [Example 336]
Ki [1]: 0.606 nM
Ki [2]: 0.522 nM

O=C(NO)C1(S(=O)(=O)N2CCC(c3ccc(OC(F)(F)C(F)F)cc3)CC2)CCOCC1 [Example 337]
Ki [1]: 0.427 nM
Ki [2]: 0.708 nM

O=C(NO)C1(S(=O)(=O)N2CCC(c3ccc(CCCC(F)(F)F)cn3)CC2)CCOCC1 [Example 338]
Ki [1]: 1.09 nM
Ki [2]: 0.302 nM

O=C(NO)C1(S(=O)(=O)N2CCC(c3ccc(CCC(F)(F)C(F)(F)F)cn3)CC2)CCOCC1 [Example 340]
Ki [1]: 0.26 nM
Ki [2]: 0.107 nM

CCN1CCC(C(=O)NO)(S(=O)(=O)N2CCN(c3ccc(-c4ccccc4)c(F)c3)CC2)CC1 [Example 341]
Ki [1]: 0.829 nM
Ki [2]: 2.59 nM

O=C(NO)C1(S(=O)(=O)N2CCN(c3ccc(OCCCC(F)(F)F)cc3)CC2)CC(O)C1 (stereo not drawn) [Example 342]
Ki [1]: 16.9 nM
Ki [2]: 3.89 nM

O=C(NO)C1(S(=O)(=O)N2CCN(c3ncc(-c4ccc(Cl)cc4)s3)CC2)CCOCC1 [Example 343]
Ki [1]: 0.113 nM
Ki [2]: 0.167 nM

Cc1ccc(-c2cnc(N3CCN(S(=O)(=O)C4(C(=O)NO)CCOCC4)CC3)s2)cc1 [Example 344]
Ki [1]: 0.177 nM
Ki [2]: 0.267 nM

O=C(NO)C1(S(=O)(=O)N2CCN(c3ncc(-c4ccc(F)cc4)s3)CC2)CCOCC1 [Example 345]
Ki [1]: 0.169 nM
Ki [2]: 0.236 nM

O=C(NO)C1(S(=O)(=O)N2CCN(c3ncc(-c4ccc(C(F)(F)F)cc4)s3)CC2)CCOCC1 [Example 346]
Ki [1]: 0.215 nM
Ki [2]: 0.167 nM

CC(C)(C)c1ccc(-c2cnc(N3CCN(S(=O)(=O)C4(C(=O)NO)CCOCC4)CC3)s2)cc1 [Example 347]
Ki [1]: 8.57 nM
Ki [2]: 1.48 nM

Cc1ccccc1-c1cnc(N2CCN(S(=O)(=O)C3(C(=O)NO)CCOCC3)CC2)s1 [Example 348]
Ki [1]: 4.61 nM
Ki [2]: 2.99 nM

O=C(NO)C1(S(=O)(=O)N2CCC(c3ccc(OC(F)(F)C(F)(F)F)cc3)CC2)CCOCC1 [Example 349]
Ki [1]: 2.12 nM
Ki [2]: 5.08 nM

O=C(NO)C1(S(=O)(=O)N2CCC(c3ccc(OCC(F)(F)C(F)F)cc3)CC2)CCN(C2CC2)CC1 [Example 350]
Ki [1]: 0.891 nM
Ki [2]: 0.523 nM

O=C(NO)C1(S(=O)(=O)N2CCC(c3ccc(CCCC(F)(F)F)cc3)CC2)CCN(C2CC2)CC1 [Example 351]
Ki [1]: 1.26 nM
Ki [2]: 0.359 nM

O=C(O)c1ccc(N2CCN(S(=O)(=O)C3(C(=O)NO)CCOCC3)CC2)cc1 [Example 352]
Ki [1]: 2130 nM
Ki [2]: 3640 nM

O=C(NO)C1(S(=O)(=O)N2CCC(c3ccc(CCCC(F)(F)F)cc3)CC2)CCOCC1 [Example 353]
Ki [1]: 1.29 nM
Ki [2]: 0.378 nM

CCCCOc1cccc(N2CCN(S(=O)(=O)C3(C(=O)NO)CCOCC3)CC2)c1 [Example 354]
Ki [1]: 89.4 nM
Ki [2]: 165 nM

O=C(NO)C1(S(=O)(=O)N2CCN(c3cccc(OCCCC(F)(F)F)c3)CC2)CCOCC1 [Example 355]
Ki [1]: 38.3 nM
Ki [2]: 51.1 nM

CCCCCc1cccc(N2CCN(S(=O)(=O)C3(C(=O)NO)CCOCC3)CC2)c1 [Example 356]
Ki [1]: 65.7 nM
Ki [2]: 35.3 nM

O=C(NO)C1(S(=O)(=O)N2CCC(c3ccc(OCC(F)(F)F)cc3)CC2)CCOCC1 [Example 357]
Ki [1]: 0.919 nM
Ki [2]: 1.2 nM

O=C(NO)C1(S(=O)(=O)N2CCN(c3ccc(CCCC(F)(F)F)cn3)CC2)CCOCC1 [Example 358]
Ki [1]: 0.281 nM
Ki [2]: 0.15 nM

O=C(NO)C1(S(=O)(=O)N2CCN(c3ncc(-c4ccc(F)cc4F)s3)CC2)CCOCC1 [Example 359]
Ki [1]: 0.266 nM
Ki [2]: 0.439 nM

O=C(NO)C1(S(=O)(=O)N2CCN(c3ncc(-c4ccc(-c5ccccc5)cc4)s3)CC2)CCOCC1 [Example 360]
Ki [1]: 0.395 nM
Ki [2]: 0.426 nM

O=C(NO)C1(S(=O)(=O)N2CCN(c3ncc(/C=C/c4ccccc4)s3)CC2)CCOCC1 [Example 361]
Ki [1]: 1.37 nM and 1.39 nM
Ki [2]: 1.06 nM and 1.07 nM

O=C(NO)C1(S(=O)(=O)N2CCN(c3ncc(-c4ccc5c(c4)OCO5)s3)CC2)CCOCC1 [Example 362]
Ki [1]: 0.333 nM
Ki [2]: 0.408 nM

O=C(NO)C1(S(=O)(=O)N2CCN(c3ncc(-c4ccc([N+](=O)[O-])cc4)s3)CC2)CCOCC1 [Example 363]
Ki [1]: 0.056 nM
Ki [2]: 0.076 nM

O=C(NO)C1(S(=O)(=O)N2CCN(c3ncc(-c4ccc(OC(F)(F)F)cc4)s3)CC2)CCOCC1 [Example 364]
Ki [1]: 0.187 nM
Ki [2]: 0.106 nM

O=C(NO)C1(S(=O)(=O)N2CCN(c3ncc(-c4cccc(-c5ccccc5)c4)s3)CC2)CCOCC1 [Example 365]
Ki [1]: 201 nM
Ki [2]: 101 nM

CC(C)c1ccc(-c2cnc(N3CCN(S(=O)(=O)C4(C(=O)NO)CCOCC4)CC3)s2)cc1 [Example 366]
Ki [1]: 0.264 nM
Ki [2]: 0.182 nM

O=C(NO)C1(S(=O)(=O)N2CCC(c3ccc(CCC(F)(F)F)cn3)CC2)CCOCC1 [Example 367]
Ki [1]: 0.978 nM
Ki [2]: 0.835 nM

O=C(NO)C1(S(=O)(=O)N2CCN(c3ncc(-c4ccc(O)cc4)s3)CC2)CCOCC1 [Example 368]
Ki [1]: 0.225 nM
Ki [2]: 0.329 nM

O=C(NO)C1(S(=O)(=O)N2CCN(c3ncc(-c4ccc(Cl)c(Cl)c4)s3)CC2)CCOCC1 [Example 369]
Ki [1]: 0.879 nM
Ki [2]: 1.35 nM

Cc1cccc(-c2cnc(N3CCN(S(=O)(=O)C4(C(=O)NO)CCOCC4)CC3)s2)c1 [Example 370]
Ki [1]: 1.34 nM
Ki [2]: 4.16 nM

COc1ccc(-c2cnc(N3CCN(S(=O)(=O)C4(C(=O)NO)CCOCC4)CC3)s2)cc1OC [Example 371]
Ki [1]: 4.14 nM
Ki [2]: 1.35 nM
